The values that follow are results of earlier work, collected in US20080305060A1, “AQUEOUS-ALCOHOLIC DEPIGMENTING GELS” (GALDERMA RESEARCH & DEVELOPMENT, priority 2005, published 2008).

Read-outs that look alike come from different tables or passages of the source.

For `Oc1ccc(O)cc1` [hydroquinone], the Incidence of irritation result runs as follows: (10% hydroquinone concentration) “relatively high”; (hydroquinone concentration of 2%) “virtually nonexistent”; (preparations with a 5% dose of hydroquinone) “reduces greatly”.
